Values of other authors, collected in patent US4093713A, “Dipeptide derivatives with central nervous system activity and preparation thereof” (Ayerst McKenna & Harrison Ltd., priority 1977, dated 1978).
Read-outs that look alike come from different tables or passages of the source.

What was measured:
[1] = in vivo
[2] = test system: sedative effects of deserpidine; conditions: monkeys; literature: Plotnikoff
[3] = test system: behavioral effects of L-DOPA; conditions: literature: Plotnikoff 1971, Friedman 1973
[4] = test system: effects of oxotremorin; conditions: literature: Plotnikoff 1972
[5] = test system: sedative effects of deserpidine; conditions: mice; literature: Plotnikoff

For “H-L-prolyl-L-leucyl-glycinamide [H-Pro-Leu-Gly-NH2]”, the duration of action [1] is given as “short duration of action”, the “first step in the inactivation” value [1] is given as “proteolytic cleavage of the Pro-Leu bond with formation of proline and leucyl-glycinamide” and the “reversal of the sedative effects of deserpidine” value [2] is given as “reverses the sedative effects of deserpidine”. The “potentiation of the behavioral effects of L-DOPA” value [3] was “potentiates the behavioral effects of (3,4-dihydroxyphenyl)-L-alanine (L-DOPA)”, the “antagonism of the effects of oxotremorin” value [4] was “antagonizes the effects of oxotremorin” and the “reversal of the sedative effects of deserpidine” value [5] was “reverses the sedative effects of deserpidine”.
